# Species: Rattus norvegicus
# Test: DrugMatrix - Regimen: Daily Repeat
# Format: toxicity, organism-based, Sprague-Dawley
# Set-up: regimen Daily Repeat, gender Male, age 6-8 weeks
# Conditions: in vivo, po, route oral GAVAGE, vehicle .5 % CMC; for ABSOLUTE BASOPHIL / ABSOLUTE EOSINOPHIL / ABSOLUTE LYMPHOCYTE / ABSOLUTE MONOCYTE / ABSOLUTE SEGMENTED NEUTROPHIL / BASOPHIL / EOSINOPHIL / ERYTHROCYTE COUNT / HEMATOCRIT / HEMOGLOBIN / LEUKOCYTE COUNT / LYMPHOCYTE / MEAN CORPUSCULAR HEMOGLOBIN / MEAN CORPUSCULAR HEMOGLOBIN CONCENTRATION / MEAN CORPUSCULAR VOLUME / MONOCYTE / NEUTROPHIL / NUCLEATED RED BLOOD CELLS / PLATELET COUNT: tissue Blood; for ALANINE AMINOTRANSFERASE / ALBUMIN / ALKALINE PHOSPHATASE / ASPARTATE AMINOTRANSFERASE / BLOOD UREA NITROGEN / CARBON DIOXIDE / CHLORIDE / CHOLESTEROL / CREATINE PHOSPHOKINASE / CREATININE / GLUCOSE / LACTATE DEHYDROGENASE / LIPASE / PHOSPHORUS / POTASSIUM / SODIUM / TOTAL BILIRUBIN / TOTAL PROTEIN / URIC ACID: tissue Plasma
# [1] = 0 mg/kg, 72 h, dose level Control, time 3 day
# [2] = 0 mg/kg, 120 h, dose level Control, time 5 day
# [3] = 0.1 mg/kg, 72 h, dose level Low, time 3 day
smiles,measurement,setting,value
CCCN1C[C@H](CSC)C[C@@H]2c3cccc4[nH]cc(c34)C[C@H]21 [PERGOLIDE],ABSOLUTE BASOPHIL,[1],0 CELLS/uL
same,ABSOLUTE EOSINOPHIL,[1],284.5 CELLS/uL
same,ABSOLUTE LYMPHOCYTE,[1],11670.5 CELLS/uL
same,ABSOLUTE MONOCYTE,[1],420.83 CELLS/uL
same,ABSOLUTE SEGMENTED NEUTROPHIL,[1],1024.17 CELLS/uL
same,BASOPHIL,[1],0%
same,EOSINOPHIL,[1],1.67%
same,ERYTHROCYTE COUNT,[1],5.38 x10E6/uL
same,HEMATOCRIT,[1],34.05%
same,HEMOGLOBIN,[1],12.75 G/DL
same,LEUKOCYTE COUNT,[1],13.4 x10E3/uL
same,LYMPHOCYTE,[1],88.33%
same,MEAN CORPUSCULAR HEMOGLOBIN,[1],23.73 pg
same,MEAN CORPUSCULAR HEMOGLOBIN CONCENTRATION,[1],37.43 G/DL
same,MEAN CORPUSCULAR VOLUME,[1],63.4 fL
same,MONOCYTE,[1],2.83%
same,NEUTROPHIL,[1],7.17%
same,NUCLEATED RED BLOOD CELLS,[1],0 /100WBC
same,PLATELET COUNT,[1],1184.67 x10E3/uL
same,ALANINE AMINOTRANSFERASE,[1],45.33 u/L
same,ALBUMIN,[1],4.3 G/DL
same,ALKALINE PHOSPHATASE,[1],388.83 u/L
same,ASPARTATE AMINOTRANSFERASE,[1],84.83 u/L
same,BLOOD UREA NITROGEN,[1],15.5 mg/dL
same,CARBON DIOXIDE,[1],27 mmol/L
same,CHLORIDE,[1],101.8 MEQ/L
same,CHOLESTEROL,[1],76.67 mg/dL
same,CREATINE PHOSPHOKINASE,[1],301 u/L
same,CREATININE,[1],0.21 mg/dL
same,GLUCOSE,[1],168.83 mg/dL
same,LACTATE DEHYDROGENASE,[1],294.83 u/L
same,LIPASE,[1],9.8 u/L
same,PHOSPHORUS,[1],13.25 mg/dL
same,POTASSIUM,[1],6.41 MEQ/L
same,SODIUM,[1],143.72 MEQ/L
same,TOTAL BILIRUBIN,[1],0.22 mg/dL
same,TOTAL PROTEIN,[1],5.98 G/DL
same,URIC ACID,[1],1.5 mg/dL
same,ABSOLUTE BASOPHIL,[2],0 CELLS/uL
same,ABSOLUTE EOSINOPHIL,[2],190.67 CELLS/uL
same,ABSOLUTE LYMPHOCYTE,[2],12549.5 CELLS/uL
same,ABSOLUTE MONOCYTE,[2],276 CELLS/uL
same,ABSOLUTE SEGMENTED NEUTROPHIL,[2],1067.17 CELLS/uL
same,BASOPHIL,[2],0%
same,EOSINOPHIL,[2],1.33%
same,ERYTHROCYTE COUNT,[2],5.66 x10E6/uL
same,HEMATOCRIT,[2],35.92%
same,HEMOGLOBIN,[2],13.65 G/DL
same,LEUKOCYTE COUNT,[2],14.08 x10E3/uL
same,LYMPHOCYTE,[2],89%
same,MEAN CORPUSCULAR HEMOGLOBIN,[2],24.12 pg
same,MEAN CORPUSCULAR HEMOGLOBIN CONCENTRATION,[2],38.03 G/DL
same,MEAN CORPUSCULAR VOLUME,[2],63.47 fL
same,MONOCYTE,[2],2%
same,NEUTROPHIL,[2],7.67%
same,NUCLEATED RED BLOOD CELLS,[2],0.17 /100WBC
same,PLATELET COUNT,[2],1251.67 x10E3/uL
same,ALANINE AMINOTRANSFERASE,[2],43.33 u/L
same,ALBUMIN,[2],4.22 G/DL
same,ALKALINE PHOSPHATASE,[2],365.67 u/L
same,ASPARTATE AMINOTRANSFERASE,[2],83.67 u/L
same,BLOOD UREA NITROGEN,[2],18.17 mg/dL
same,CARBON DIOXIDE,[2],28.67 mmol/L
same,CHLORIDE,[2],103.5 MEQ/L
same,CHOLESTEROL,[2],71.5 mg/dL
same,CREATINE PHOSPHOKINASE,[2],284.5 u/L
same,CREATININE,[2],0.21 mg/dL
same,GLUCOSE,[2],161.67 mg/dL
same,LACTATE DEHYDROGENASE,[2],259.67 u/L
same,LIPASE,[2],9.5 u/L
same,PHOSPHORUS,[2],12.45 mg/dL
same,POTASSIUM,[2],6.49 MEQ/L
same,SODIUM,[2],144.25 MEQ/L
same,TOTAL BILIRUBIN,[2],0.2 mg/dL
same,TOTAL PROTEIN,[2],6.1 G/DL
same,URIC ACID,[2],1.73 mg/dL
same,ABSOLUTE BASOPHIL,[3],0 CELLS/uL
same,ABSOLUTE EOSINOPHIL,[3],0 CELLS/uL
same,ABSOLUTE LYMPHOCYTE,[3],6272.67 CELLS/uL
same,ABSOLUTE MONOCYTE,[3],109.67 CELLS/uL
same,ABSOLUTE SEGMENTED NEUTROPHIL,[3],384.33 CELLS/uL
same,BASOPHIL,[3],0%
same,EOSINOPHIL,[3],0%
same,ERYTHROCYTE COUNT,[3],5.33 x10E6/uL
same,HEMATOCRIT,[3],33.93%
same,HEMOGLOBIN,[3],12.33 G/DL
same,LEUKOCYTE COUNT,[3],6.77 x10E3/uL
same,LYMPHOCYTE,[3],92.67%
same,MEAN CORPUSCULAR HEMOGLOBIN,[3],23.1 pg
same,MEAN CORPUSCULAR HEMOGLOBIN CONCENTRATION,[3],36.37 G/DL
same,MEAN CORPUSCULAR VOLUME,[3],63.57 fL
same,MONOCYTE,[3],1.67%
same,NEUTROPHIL,[3],5.67%
same,NUCLEATED RED BLOOD CELLS,[3],0 /100WBC
same,PLATELET COUNT,[3],1337.33 x10E3/uL
same,ALANINE AMINOTRANSFERASE,[3],45.67 u/L
same,ALBUMIN,[3],4.4 G/DL
same,ALKALINE PHOSPHATASE,[3],479.67 u/L
same,ASPARTATE AMINOTRANSFERASE,[3],81.67 u/L
same,BLOOD UREA NITROGEN,[3],15.33 mg/dL
same,CARBON DIOXIDE,[3],28.67 mmol/L
same,CHLORIDE,[3],102 MEQ/L
same,CHOLESTEROL,[3],85 mg/dL
same,CREATINE PHOSPHOKINASE,[3],214.67 u/L
same,CREATININE,[3],0.21 mg/dL
same,GLUCOSE,[3],139 mg/dL
same,LACTATE DEHYDROGENASE,[3],153.33 u/L
same,LIPASE,[3],9 u/L
same,PHOSPHORUS,[3],12.77 mg/dL
same,POTASSIUM,[3],6.37 MEQ/L
same,SODIUM,[3],146.5 MEQ/L
same,TOTAL BILIRUBIN,[3],0.23 mg/dL
same,TOTAL PROTEIN,[3],6.23 G/DL
same,URIC ACID,[3],1.53 mg/dL
